Source: ChEMBL document CHEMBL5724914, “Linking interpersonal differences in gut microbiota composition and drug biotransformation activity” (2024)

Experiments:
[1] = (§1) The drug is tested on Z-021 corresponding to metagenome with ENA study accession number: PRJEB37062 and ENA sample accession number: ERS12561820 for biotransformation under anaerobic condition. The drug concentrations were measured over 9 timepoints collected between 0 and 24 hours of incubation by liquid-chromatography-coupled mass spectrometry (LC–MS); settings: 2 µM
[2] = (§2) The drug is tested on WLS-077 corresponding to human gut metagenome with ENA study accession number: PRJEB37062 and ENA sample accession number: ERS12561750 for biotransformation under anaerobic condition. The drug concentrations were measured over 9 timepoints collected between 0 and 24 hours of incubation by liquid-chromatography-coupled mass spectrometry (LC–MS); settings: 2 µM
[3] = as §1, with “Z-026” for “Z-021”, “ERS12561825” for “ERS12561820”; settings: 2 µM
[4] = as §2, with “Z-029” for “WLS-077”, “rat” for “human”, “ERS12561828” for “ERS12561750”; settings: 2 µM
[5] = human gut metagenome, 24 h, 2 µM
[6] = as §1, with “Z-027” for “Z-021”, “ERS12561826” for “ERS12561820”; settings: 2 µM
[7] = as §2, with “WLS-038” for “WLS-077”, “ERS12561745” for “ERS12561750”; settings: 2 µM
[8] = as §2, with “WLS-350” for “WLS-077”, “ERS12561789” for “ERS12561750”; settings: 2 µM
[9] = human gut metagenome, 24 h, 2 µM; remark: listed apart in the source
[10] = human gut metagenome, 24 h, 2 µM; remark: listed apart in the source
[11] = human gut metagenome, 24 h, 2 µM; remark: listed apart in the source
[12] = as §2, with “Z-019” for “WLS-077”, “rat” for “human”, “ERS12561818” for “ERS12561750”; settings: 2 µM
[13] = human gut metagenome, 24 h, 2 µM; remark: listed apart in the source
[14] = as §2, with “Z-016” for “WLS-077”, “mouse” for “human”, “ERS12561815” for “ERS12561750”; settings: 2 µM
[15] = human gut metagenome, 24 h, 2 µM; remark: listed apart in the source
[16] = human gut metagenome, 24 h, 2 µM; remark: listed apart in the source
[17] = as §2, with “Z-013” for “WLS-077”, “rabbit” for “human”, “ERS12561813” for “ERS12561750”; settings: 2 µM
[18] = as §2, with “Z-024” for “WLS-077”, “pig” for “human”, “ERS12561823” for “ERS12561750”; settings: 2 µM
[19] = as §2, with “Z-017” for “WLS-077”, “mouse” for “human”, “ERS12561816” for “ERS12561750”; settings: 2 µM
[20] = as §2, with “Z-011” for “WLS-077”, “mouse” for “human”, “ERS12561811” for “ERS12561750”; settings: 2 µM

Measured: Bacterial Biotransformation
Note: call rule not given here.

COc1ccc(CN2CCNCC2)c(OC)c1OC.Cl.Cl [TRIMETAZIDINE DIHYDROCHLORIDE]
Compound NOT metabolized: all assays above

CN1[C@@H]2CC[C@H]1C[C@@H](OC(=O)c1c[nH]c3ccccc13)C2 [TROPISETRON]
Compound NOT metabolized: all assays above
